# Data published in US9820951B2, “Pulmonary disease treatment and diagnosis based on Arhgef1” (NATIONAL JEWISH HEALTH, A NON-PROFIT ORGANIZATION, priority 2011, dated 2017).
# Entries after “also recorded” stand apart in the source; their conditions may differ.
# Assays:
# Mmp9 [1] = test: MMP9 activity by gelatin zymography in conditioned media of mouse peritoneal macrophages cultured on fibronectin; assay type: cell-based; details: for maximal inhibition of fibronectin-induced MMP9 production/activity: both wild type and Arhgef1-deficient macrophages, aspirin up to 20 mM, L-161,982, PTA2 1.56 or 6.25 μM, L-655,240 28 μM
# Protocol: FIG. 5. TP-induced MMP9 production is only partially dependent on COX activity. A) PEMs were cultured on fibronectin for 24 hours with 5% FCS, washed then treated with different concentration of aspirin or 1.6 μM PTXA2 at for an additional 24 hours without FCS. MMP9 activity was determined by zymography from supernatants of wild type (open) or Arhgef1−/− (filled) macrophages. Activity was normalized to activity generated from cells cultured on fibronectin without treatment. B) MMP9 activity in conditioned media from peripheral blood monocytes cultured as described in panel A. Data represents mean±SE (n=3 independent donors).
# FIG. 6. The antioxidant mimetic MnTE-2PyP reduces MMP9 activity in macrophages. PEMs were cultured on fibronectin for 24 hours with 5% FCS, washed then treated with MnTE-2PyP at the indicated concentrations for an additional 24 hours without FCS. MMP9 activity was determined by zymography from supernatants of wild type (open) or Arhgef1−/− (filled) macrophages. Activity was normalized to activity generated from cells cultured on fibronectin without treatment.
# FIG. 11. Cyclooxygenase activity but not EP4 receptor signaling is required for MMP9 production by murine macrophages cultured on fibronectin. A, representative MMP9 gelatin zymograms of conditioned media from peritoneal macrophages cultured on either plastic (ctl) or FN and treated with increasing concentrations of aspirin (1.25, 5.0, and 20 mM, respectively). Wild type (+/+) and Arhgef1^−/− (−/−) samples from separate zymograms are shown. Molecular weight standards and respective enzymatic activities of MMP9 and MMP2 are shown. B, quantitation of MMP9 activity as determined by densitometric analysis of zymograms in A. MMP 9 activity is shown in arbitrary units and represents n=6 for both wild type (open bars) and Arhgef1^−/− (black bars) samples. The results are compiled from two independent experiments. The data represent the means±S.E. *, p<0.05 Student's two-tailed t test compared with conditioned media from cells cultured on plastic. #, p<0.05 Student's two-tailed test comparing conditioned media from wild type cells to Arhgef1^−/− cells cultured under identical conditions. $, p<0.05 Student's two-tailed t test compared with conditioned media from cells cultured on fibronectin. C, quantitation of MMP9 activity in conditioned media from macrophages cultured on fibronectin in the presence of the EP4 antagonist L161,982 (10 μM). MMP9 activity was normalized to fibronectin response for each genotype. The results are compiled from two independent experiments with wild type (open bars, n=5) and Arhgef1^−/− (black bars, n=5) samples. The data represent the means±S.E. *, p<0.05 Student's two-tailed t test compared with conditioned media from cells cultured on plastic. #, p<0.05 Student's two-tailed t test compared with conditioned media from cells cultured on fibronectin.
# FIG. 12. Thromboxane receptor signaling is necessary for fibronectin-induced MMP9 production by macrophages and is attenuated by Arhgef1. A, representative gelatin zymograms of conditioned media from macrophages cultured on plastic (ctl) or FN and treated with 1.56 or 6.25 μM of the thromboxane receptor antagonist PTA2. Wild type (+/+) and Arhgef1^−/− (−/−) samples from separate zymograms are shown. B, quantitation of MMP9 activity as determined by densitometric analysis of zymograms in A. The results are representative of two independent experiments. C, representative zymograms from conditioned media from macrophages cultured on plastic or fibronectin and treated with 28 μM of the thromboxane receptor antagonist L-655,240. D, quantitation of MMP9 activity as determined by densitometric analysis of zymograms in C. The results are compiled from two independent experiments with n=4 for both wild type (open bars) and Arhgef1^−/− (black bars) samples. […]
# MMP9 [2] = test: MMP9 activity by gelatin zymography, peripheral blood monocytes from COPD patients on fibronectin; assay type: cell-based, human; details: monocytes from 3 COPD patients; dose response 0.4 μM to 260 μM
# Protocol: FIG. 17. Seratrodast (AA-2414) treatment on peripheral blood monocytes from 3 COPD patients. Generated dose response curve going firm 0.4 μM to 260 μM. Measured response by gelatin zymography of conditioned media. A is a representative zymogram from a single individual COPD patient. B depicts results compiled from three COPD patients. *, p<0.05 for ctl vs FN; #, p<0.05 FN vs FN+seratrodast.
# For other human studies, we quantitated MMP9 by ELISA in conditioned medium (ELISA TECH, Aurora, Colo.).
# Novex (Invitrogen) zymogram 10% gelatin gels were used for zymography as indicated per the manufacturer's instructions on conditioned media. Protease activity was detected as a loss of gelatin at the molecular weight of the indicated MMP and quantified by densitometric analysis using ImageJ (National Institutes of Health) software.
# As another example, the thromboxane receptor antagonist seratrodast (AA-2414) was used on peripheral blood monocytes from 3 COPD patients and data collected as shown in FIG. 17.
# Mmp9 [3] = test: MMP9 activity in BAL of Arhgef1−/− mice after aerosol exposure; assay type: in vivo, mouse; details: inhalation of aerosol 20 min (220 μM PTXA2, 190 μM U-46619), BAL 24 hours later
# Protocol: (§1) FIG. 4. TP signaling is required for MMP9 production in vitro and in vivo. A) Macrophage Mmp9 expression after culture on fibronectin for 24 hrs in media/vehicle (−), 40 nM S1P, 10 μM LPA, 10 nM U-46619 (TP agonist) or 6 μM PTXA2 (TP antagonist). Data represent normalized mean±SE. B) Arhgef1−/− mice (n=16) were exposed to aerosolized PBS (n=16), 220 μM PTXA2 (n=6) or 190 μM U-46619 (n=10) for 20 minutes and BAL harvested 1 day later and MMP activity measured.
# Mmp9 [4] = test: Mmp9 expression by qPCR in mouse peritoneal macrophages cultured on fibronectin; assay type: cell-based
# Protocol: as §1
# FIG. 12. Thromboxane receptor signaling is necessary for fibronectin-induced MMP9 production by macrophages and is attenuated by Arhgef1. A, representative gelatin zymograms of conditioned media from macrophages cultured on plastic (ctl) or FN and treated with 1.56 or 6.25 μM of the thromboxane receptor antagonist PTA2. Wild type (+/+) and Arhgef1^−/− (−/−) samples from separate zymograms are shown. B, quantitation of MMP9 activity as determined by densitometric analysis of zymograms in A. The results are representative of two independent experiments. C, representative zymograms from conditioned media from macrophages cultured on plastic or fibronectin and treated with 28 μM of the thromboxane receptor antagonist L-655,240. D, quantitation of MMP9 activity as determined by densitometric analysis of zymograms in C. The results are compiled from two independent experiments with n=4 for both wild type (open bars) and Arhgef1^−/− (black bars) samples. The data represent the means±S.E. *, p<0.05 Student's two-tailed t test compared with conditioned media from cells cultured on plastic. #, p<0.05 Student's two-tailed t test comparing conditioned media from wild type cells to Arhgef1^−/− cells cultured under identical conditions. $, p<0.05 Student's two-tailed t test compared with conditioned media from cells cultured on fibronectin. E, MMP2 activity was quantitated in conditioned media as previously described for MMP9. The results are compiled from four independent experiments with n=10 for wild type (open bars) and Arhgef1^−/− (black bars) samples cultured on either plastic or fibronectin. For cells treated with 20 mM aspirin, n=6 for wild type (open bars) and Arhgef1^−/− (black bars) samples. For cells treated with 28 μM L-655,240, n=4 for wild type (open bars) and Arhgef1^−/− (black bars) samples. The data represent the means±S.E. F, MMP9 activity was quantitated as previously described and normalized to a percentage of fibronectin response for each genotype. The cells were either untreated or treated with 0.5% Me2SO or 28 μM L-655,240. The results are compiled from two independent experiments with n=3 for all conditions and genotypes. The data represent the means±S.E. *, p<0.05 Student's two-tailed t test compared with conditioned media from cells cultured on fibronectin. G, relative Mmp9 expression was measured by qPCR in macrophages cultured on fibronectin in the presence of the thromboxane receptor agonist (U-46619, 10 nM), S1P (40 nM), or LPA (10 μM). […] Wild type (open bars, n=12, 6, 3, and 3 for fibronectin, +U-46619, +S1P, and +LPA, respectively) and Arhgef1^−/− (black bars, n=14, 6, 3, and 2, respectively) from at least two independent experiments. The data represent the means±S.E. *, p<0.05 Student's two-tailed t test compared with conditioned media from cells cultured on fibronectin, #, p<0.05 Student's two-tailed t test comparing conditioned media from wild type cells to Arhgef1^−/− cells cultured under identical conditions. […]
# MMP2 = MMP2 activity by gelatin zymography in conditioned media of mouse peritoneal macrophages cultured on fibronectin; assay type: cell-based; details: wild type and Arhgef1−/− macrophages; 20 mM aspirin or 28 μM L-655,240
# Protocol: FIG. 12. Thromboxane receptor signaling is necessary for fibronectin-induced MMP9 production by macrophages and is attenuated by Arhgef1. A, representative gelatin zymograms of conditioned media from macrophages cultured on plastic (ctl) or FN and treated with 1.56 or 6.25 μM of the thromboxane receptor antagonist PTA2. Wild type (+/+) and Arhgef1^−/− (−/−) samples from separate zymograms are shown. B, quantitation of MMP9 activity as determined by densitometric analysis of zymograms in A. The results are representative of two independent experiments. C, representative zymograms from conditioned media from macrophages cultured on plastic or fibronectin and treated with 28 μM of the thromboxane receptor antagonist L-655,240. D, quantitation of MMP9 activity as determined by densitometric analysis of zymograms in C. The results are compiled from two independent experiments with n=4 for both wild type (open bars) and Arhgef1^−/− (black bars) samples. […] E, MMP2 activity was quantitated in conditioned media as previously described for MMP9. […] The data represent the means±S.E. F, MMP9 activity was quantitated as previously described and normalized to a percentage of fibronectin response for each genotype. […] G, relative Mmp9 expression was measured by qPCR in macrophages cultured on fibronectin in the presence of the thromboxane receptor agonist (U-46619, 10 nM), S1P (40 nM), or LPA (10 μM). […]
# [5] = wild type and Arhgef1-deficient macrophages on fibronectin, 40 nM S1P, 10 μM LPA, 6 μM PTXA2, 24 h
molecule,measurement,setting,value
"CCCCc1nn(-c2ccccc2C(F)(F)F)c(=O)n1Cc1ccc(-c2ccccc2S(=O)(=O)NC(=O)c2sccc2C)cc1 [L-161,982]",maximal inhibition of fibronectin-induced MMP9 production/activity,Mmp9 [1],−40%
"CC1=C(C)C(=O)C(C(CCCCCC(=O)O)c2ccccc2)=C(C)C1=O (stereo not shown) [seratrodast, 7-phenyl-7-(2,4,5-trimethyl-3,6-dioxocyclohexa-1,4-dien-1-yl)heptanoic acid]",MMP9 activity versus dose,MMP9 [2],inverse relationship between MMP9 activity and seratrodast dose
CCCCC[C@H](O)/C=C/[C@@H]1[C@@H](C/C=C\CCCC(=O)O)[C@H]2CO[C@@H]1C2 [U-46619],MMP9 activity in BAL,Mmp9 [3],dramatically increased MMP9 activity
same,Mmp9 expression,"Mmp9 [4]; Arhgef1-deficient macrophages on fibronectin, 10 nM U-46619",expressed significantly more Mmp9; also recorded: considerably increased Mmp9 expression
same,Mmp9 expression,"Mmp9 [4]; wild type macrophages on fibronectin, 10 nM U-46619",did not affect wild type cells
lysophosphatidic acid [LPA],Mmp9 expression,Mmp9 [4]; [5],slight decrease in Mmp9 expression; also recorded: modestly depress Mmp9 expression
"CCCCCCCCCCCCC/C=C/[C@@H](O)[C@@H](N)COP(=O)(O)O [S1P, sphingosine-1-phosphate]",Mmp9 expression,Mmp9 [4]; [5],slight decrease in Mmp9 expression; also recorded: modestly depress Mmp9 expression
"Cc1c(CC(C)(C)C(=O)O)n(Cc2ccc(Cl)cc2)c2ccc(F)cc12 [L-655,240, 1-[(4-Chlorophenyl)methyl]-5-fluoro-α,α,3-trimethyl-1H-indole-2-propanoic acid]",MMP2 activity,MMP2,not affected
same,maximal inhibition of fibronectin-induced MMP9 production/activity,Mmp9 [1],−90%
same,fibronectin-mediated MMP9 activity (effect in words),"Mmp9 [1]; mouse macrophages, wild type and Arhgef1−/−, 1.6 μM PTXA2, 28 μM L-655,240",significantly reduced MMP9 activity
